According to ChEMBL document CHEMBL1201862, “PubChem BioAssay data set” (2004):
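In this assay, cells in 96-well plates receive the compound at five concentrations for 48 hours. Endpoints are linearly interpolated between the surrounding concentrations. GI50 marks 50% less growth.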 Activity calls are given as the source filed them. Rule as the data show it: active = GI50 up to about 1.1 µM and inactive = higher. Where a SMILES comes first, the peptide text is derived from it. [ ]: non-standard residue; d: D form. The star is where a group is joined. NMeAc5c = CNC1(C(=O)O)CCCC1; Boc = CC(C)(C)OC(=O)*; OBn = c1ccc(CO*)cc1

Legend:
Test in all cases: inhibition of tumour cell growth, NCI panel, 48 h
A498 = tested on: A498
BT-549 = tested on: BT-549
DU-145 = tested on: DU-145
HCT-116 = tested on: HCT-116
HT-29 = tested on: HT-29
IGROV-1 = tested on: IGROV-1
K562 = tested on: K562
KM12 = tested on: KM12
M14 = tested on: M14
MCF7 = tested on: MCF7
MDA-MB-231 = tested on: MDA-MB-231
MDA-N = tested on: MDA-N
NCI-H460 = tested on: NCI-H460
SF-295 = tested on: SF-295
SK-MEL-2 = tested on: SK-MEL-2
SNB-19 = tested on: SNB-19
SNB-75 = tested on: SNB-75
U-251 = tested on: U-251
Malme-3M = tested on: Malme-3M
RXF 393 = tested on: RXF 393

Measured: GI50

Oc1ccc(/C=C/c2cccc(/C=C/c3ccc(O)c(O)c3)n2)cc1O
inactive: A498 12.9 µM | BT-549 10.9 µM | DU-145 3.77 µM | HCT-116 5.98 µM | HT-29 10.8 µM | IGROV-1 6.15 µM | K562 3.86 µM | KM12 8.91 µM | M14 5.58 µM | MCF7 10.2 µM | MDA-MB-231 25.5 µM | MDA-N 7.53 µM | NCI-H460 5.57 µM | SF-295 18.6 µM | SK-MEL-2 11.7 µM | SNB-19 6.04 µM | SNB-75 6.01 µM | U-251 3.85 µM

Cc1ccc(S(=O)(=O)c2scc(-c3ccccc3)c2C)cc1
inactive: BT-549 98.6 µM | DU-145 93.5 µM | HCT-116 77.1 µM | HT-29 > 100 µM | IGROV-1 > 100 µM | K562 53 µM | KM12 > 100 µM | M14 > 100 µM | MCF7 61.1 µM | MDA-MB-231 > 100 µM | MDA-N > 100 µM | Malme-3M > 100 µM | NCI-H460 > 100 µM | RXF 393 > 100 µM | SF-295 42.8 µM | SK-MEL-2 62.8 µM | SNB-19 > 100 µM | SNB-75 > 100 µM | U-251 > 100 µM

CCCCCCCCCCCCOc1ccc(/C=C/C2=[N+](CCCl)CCO2)cc1
inactive: A498 > 100 µM | BT-549 > 100 µM | DU-145 > 100 µM | HCT-116 15.8 µM | HT-29 > 100 µM | IGROV-1 25.4 µM | K562 21.3 µM | KM12 38 µM | M14 > 100 µM | MCF7 54.2 µM | MDA-MB-231 25.1 µM | MDA-N 75.9 µM | Malme-3M > 100 µM | NCI-H460 43.4 µM | SF-295 45.8 µM | SK-MEL-2 > 100 µM | SNB-19 > 100 µM | SNB-75 45.5 µM | U-251 24.3 µM

CCOC(=O)Cc1nc2cc(F)c(F)cc2[nH]c1=O
inactive: BT-549 > 100 µM | DU-145 > 100 µM | HCT-116 > 100 µM | HT-29 > 100 µM | K562 > 100 µM | KM12 > 100 µM | M14 > 100 µM | MCF7 > 100 µM | MDA-MB-231 > 100 µM | MDA-N > 100 µM | Malme-3M > 100 µM | NCI-H460 > 100 µM | RXF 393 > 100 µM | SF-295 > 100 µM | SK-MEL-2 > 100 µM | SNB-19 > 100 µM | SNB-75 > 100 µM | U-251 > 100 µM

COC(CNC(=O)C(C)NC(=O)C(C)NC(=O)c1ccccc1)OC (configuration not stated)
inactive: BT-549 > 100 µM | DU-145 > 100 µM | HCT-116 > 100 µM | HT-29 > 100 µM | IGROV-1 > 100 µM | K562 > 100 µM | KM12 > 100 µM | M14 > 100 µM | MCF7 > 100 µM | MDA-MB-231 > 100 µM | MDA-N > 100 µM | Malme-3M > 100 µM | NCI-H460 > 100 µM | RXF 393 > 100 µM | SF-295 > 100 µM | SK-MEL-2 > 100 µM | SNB-75 > 100 µM | U-251 > 100 µM

CCOC(=O)c1c(-c2ccc(Cl)cc2)c(C#N)c(=S)n(C2OC(CO)C(O)C(O)C2O)c1-c1ccccc1 (configuration not stated)
inactive: BT-549 29.4 µM | DU-145 27.2 µM | HCT-116 18.7 µM | HT-29 17.9 µM | IGROV-1 33.7 µM | K562 19.5 µM | KM12 34.5 µM | M14 19.7 µM | MCF7 22.3 µM | MDA-MB-231 31.2 µM | MDA-N 23 µM | Malme-3M 40.8 µM | NCI-H460 26.9 µM | RXF 393 23 µM | SF-295 20.4 µM | SK-MEL-2 24.1 µM | SNB-19 22.8 µM | SNB-75 27.9 µM | U-251 17 µM

O=P(Oc1ccc(Cl)cc1)(Oc1ccc(Cl)cc1)N1CC1
inactive: A498 > 10 µM | BT-549 > 10 µM | DU-145 > 10 µM | HT-29 > 10 µM | K562 > 10 µM | KM12 > 10 µM | M14 > 10 µM | MCF7 > 10 µM | MDA-MB-231 > 10 µM | MDA-N > 10 µM | Malme-3M > 10 µM | NCI-H460 > 10 µM | SF-295 > 10 µM | SK-MEL-2 > 10 µM | SNB-19 > 10 µM | SNB-75 > 10 µM | U-251 > 10 µM

CN(C(=O)C(Cc1ccccc1)NC(=O)OC(C)(C)C)C1(C(=O)NC(Cc2ccccc2)C(=O)OCc2ccccc2)CCCC1 (stereo not drawn) (Boc-Phe-[NMeAc5c]-Phe-OBn; configuration not given here)
inactive: BT-549 > 100 µM | DU-145 58.3 µM | HCT-116 30.6 µM | HT-29 22.3 µM | IGROV-1 53.6 µM | K562 29.8 µM | KM12 36.6 µM | M14 23.1 µM | MCF7 32.1 µM | MDA-MB-231 23.4 µM | MDA-N 23.2 µM | Malme-3M > 100 µM | NCI-H460 23.6 µM | RXF 393 44.7 µM | SF-295 42.6 µM | SK-MEL-2 44.3 µM | SNB-19 53.5 µM | SNB-75 > 100 µM | U-251 20.9 µM
